Where only a bound is given, the exact number is not on record here.

The IC50 is the concentration that gives 50% inhibition.

The assay deals with T1, Recombinant human KIF18A (1-467His-tagged) protein (Homo sapiens, UniProt Q8NI77).
T1 construct: Recombinant human KIF18A (1-467His-tagged) protein; His; made in house
T1 sequence (Q8NI77 1-467): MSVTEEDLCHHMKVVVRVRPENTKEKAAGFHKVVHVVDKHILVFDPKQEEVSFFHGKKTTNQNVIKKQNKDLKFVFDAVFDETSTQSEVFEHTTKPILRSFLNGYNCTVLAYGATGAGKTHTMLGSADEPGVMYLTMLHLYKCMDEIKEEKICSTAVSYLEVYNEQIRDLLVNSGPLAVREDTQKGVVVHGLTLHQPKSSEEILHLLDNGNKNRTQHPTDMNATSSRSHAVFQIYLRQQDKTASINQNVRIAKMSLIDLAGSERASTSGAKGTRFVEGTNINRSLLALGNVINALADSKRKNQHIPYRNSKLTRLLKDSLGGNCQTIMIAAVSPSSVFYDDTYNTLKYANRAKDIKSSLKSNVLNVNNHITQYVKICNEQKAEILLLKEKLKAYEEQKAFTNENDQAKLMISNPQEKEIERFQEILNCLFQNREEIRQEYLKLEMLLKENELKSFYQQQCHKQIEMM
T1 sequence (P02550 whole entry partner): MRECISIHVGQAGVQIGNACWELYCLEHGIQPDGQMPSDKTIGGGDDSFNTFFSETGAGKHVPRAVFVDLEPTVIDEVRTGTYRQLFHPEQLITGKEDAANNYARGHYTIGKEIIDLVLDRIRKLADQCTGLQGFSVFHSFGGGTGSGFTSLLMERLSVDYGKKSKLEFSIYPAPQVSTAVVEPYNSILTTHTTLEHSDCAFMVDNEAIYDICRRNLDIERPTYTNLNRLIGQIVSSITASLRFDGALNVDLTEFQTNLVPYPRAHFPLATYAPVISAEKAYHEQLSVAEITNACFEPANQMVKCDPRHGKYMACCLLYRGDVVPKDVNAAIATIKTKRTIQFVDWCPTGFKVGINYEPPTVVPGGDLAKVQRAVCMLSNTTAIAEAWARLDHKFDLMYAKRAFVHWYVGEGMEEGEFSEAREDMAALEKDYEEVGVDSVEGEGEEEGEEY
T1 sequence (P02554 whole entry partner): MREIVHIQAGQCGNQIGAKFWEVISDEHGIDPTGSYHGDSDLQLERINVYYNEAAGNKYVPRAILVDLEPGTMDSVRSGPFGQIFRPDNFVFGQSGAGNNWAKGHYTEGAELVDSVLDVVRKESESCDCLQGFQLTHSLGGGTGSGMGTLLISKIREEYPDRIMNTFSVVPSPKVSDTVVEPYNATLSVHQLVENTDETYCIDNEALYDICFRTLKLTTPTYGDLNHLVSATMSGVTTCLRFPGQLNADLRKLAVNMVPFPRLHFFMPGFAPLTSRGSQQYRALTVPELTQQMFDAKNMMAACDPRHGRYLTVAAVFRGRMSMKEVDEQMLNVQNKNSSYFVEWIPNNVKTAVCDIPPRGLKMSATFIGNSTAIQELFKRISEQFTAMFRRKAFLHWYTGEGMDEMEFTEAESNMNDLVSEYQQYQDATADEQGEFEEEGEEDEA
Briefly: KIF18A enzyme assay (microtubule-stimulated ATPase activity, ADP-Glo). It is filed as biochemical. As to conditions: 30 nM KIF18A, 75 μM ATP, 30 μg/mL pig microtubules; read-out: Inhibitory activity against KIF18A IC50. As for the experimental part: In Vitro Assay of the Compounds of the Present Invention for Inhibiting Enzymatic Activity of KIF18A
KIF18A enzyme assay: The enzymatic activity of KIF18A after treatment with the compounds was measured by an assay of microtubule-stimulated ATPase activity. ADP generated from the ATPase reaction was measured in this assay. The compounds were serially diluted 2-fold in DMSO over a range of 22 concentration points. […] Concentrations of KIF18A protein, microtubules, and ATP in the reaction were optimized for a standardized homogenous enzyme assay using an ADP-Glo kinase/ATPase assay kit. A reaction buffer [(15 mM Tris, pH 7.5), 10 mM MgCl2, 0.01% PluronicF-68, 1 μM paclitaxel, and 30 μg/mL pig microtubules] was prepared. […] The resulting reaction mixture was incubated at room temperature for another 15 min. 5 μL of ADP-Glo reagent and 2.5 μL of the reaction mixture were mixed and the resulting mixture was incubated at room temperature for 40 min. 10 μL of ADP-Glo detection reagent was added and the mixture was incubated at room temperature for 40 min. Luminescence was read using a microplate reader and compared with that of the DMSO group, and then the inhibition percentages and IC50 values of the compounds were calculated.
Turning to `C[C@H](CO)S(=O)(=O)Nc1cc(N2CCC3(CC2)CC3)c(C(=O)Nc2ccc([N+](=O)[O-])c(N3CCC(F)(F)CC3)c2)cn1` [Compound 110], the IC50 was not above 100 nM.

With `C[C@@H]1CN(c2cc(NC(=O)c3cnc(NS(=O)(=O)[C@@H](C)CO)cc3N3CCC4(CC3)CC4)ccc2[N+](=O)[O-])CCO1` [Compound 111], the IC50 is not above 100 nM. For `C[C@@H]1CN(c2cc(NC(=O)c3cnc(NS(=O)(=O)[C@H](C)CO)cc3N3CCC4(CC3)CC4)ccc2[N+](=O)[O-])CCO1` [Compound 112], the IC50 is not above 100 nM. For the compound `O=C(Nc1ccc([N+](=O)[O-])c(N2CCC(F)(F)CC2)c1)c1cnc(S(=O)(=O)NCCO)cc1N1CCC2(CC1)CC2` [Compound 113], the half-maximal inhibitory concentration (IC50) was not above 100 nM. For `C[C@@H]1CN(c2cc(NC(=O)c3cnc(S(=O)(=O)NCCO)cc3N3CCC4(CC3)CC4)ccc2[N+](=O)[O-])CCO1` [Compound 114], the IC50 is not above 100 nM. For the compound `C[C@H]1CN(c2cc(NC(=O)c3cnc(S(=O)(=O)NCCO)cc3N3CCC4(CC3)CC4)ccc2[N+](=O)[O-])CCO1` [Compound 115], the IC50 is not above 100 nM. Take `O=C(Nc1ccc([N+](=O)[O-])c(N2CC(F)(F)C2)c1)c1cnc(S(=O)(=O)NCCO)cc1N1CCC2(CC1)CC2` [Compound 116]: the half-maximal inhibitory concentration (IC50) was not above 100 nM.

Take `O=C(Nc1ccc([N+](=O)[O-])c(OCCC(F)(F)F)c1)c1cnc(S(=O)(=O)NCCO)cc1N1CCC2(CC1)CC2` [Compound 117]: the concentration for half-maximal inhibition (IC50) was not above 100 nM.

`O=C(Nc1ccc([N+](=O)[O-])c(N2CCC3(CC3)C2)c1)c1cnc(S(=O)(=O)NCCO)cc1N1CCC2(CC1)CC2` [Compound 118]: the IC50 was not above 100 nM. As for `O=C(Nc1ccc([N+](=O)[O-])c(OC2CCC2)c1)c1cnc(S(=O)(=O)NCCO)cc1N1CCC2(CC1)CC2` [Compound 119], the figure is not above 100 nM; as for `CC1(F)CCN(c2cc(NC(=O)c3cnc(S(=O)(=O)NCCO)cc3N3CCC4(CC3)CC4)ccc2[N+](=O)[O-])C1` (stereo not drawn) [Compound 120], not above 100 nM. Take `O=C(Nc1ccc([N+](=O)[O-])c(N2CCC(F)CC2)c1)c1cnc(S(=O)(=O)NCCO)cc1N1CCC2(CC1)CC2` [Compound 121]: the 50% inhibitory concentration (IC50) is not above 100 nM. In the case of `O=C(Nc1ccc([N+](=O)[O-])c(N2CC3CC3C2)c1)c1cnc(S(=O)(=O)NCCO)cc1N1CCC2(CC1)CC2` (stereo not drawn) [Compound 122] it was not above 100 nM. As to `CC(C)(CO)Nc1cc(NC(=O)c2cnc(S(=O)(=O)NCCO)cc2N2CCC3(CC2)CC3)ccc1[N+](=O)[O-]` [Compound 123], the IC50 was not above 100 nM.

As for `O=C(Nc1ccc([N+](=O)[O-])c(N2CCOCC2)c1)c1cnc(S(=O)(=O)NCCO)cc1N1CCC2(CC1)CC2` [Compound 124], the IC50 is not above 100 nM. For `C[C@@H](CO)NS(=O)(=O)c1cc(N2CCC3(CC2)CC3)c(C(=O)Nc2ccc([N+](=O)[O-])c(N3CCC(F)(F)CC3)c2)cn1` [Compound 125], the IC50 was not above 100 nM. Regarding `C[C@H](CO)NS(=O)(=O)c1cc(N2CCC3(CC2)CC3)c(C(=O)Nc2ccc([N+](=O)[O-])c(N3CCC(F)(F)CC3)c2)cn1` [Compound 126], the half-inhibitory concentration (IC50) is not above 100 nM. In the case of `C[C@@H]1CN(c2cc(NC(=O)c3cnc(S(=O)(=O)N[C@@H](C)CO)cc3N3CCC4(CC3)CC4)ccc2[N+](=O)[O-])CCO1` [Compound 127], the concentration for half-maximal inhibition (IC50) is not above 100 nM. As to `C[C@H](CO)NS(=O)(=O)c1cc(N2CCC3(CC2)CC3)c(C(=O)Nc2ccc([N+](=O)[O-])c(N3CCO[C@H](C)C3)c2)cn1` [Compound 128], the concentration for half-maximal inhibition (IC50) was not above 100 nM. On to `C[C@@H]1CN(c2nc(NC(=O)c3cnc(NS(=O)(=O)CCO)cc3N3CCC4(CC3)CC4)ccc2[N+](=O)[O-])CCO1` [Compound 130], for which the IC50 is not above 100 nM. As for `C[C@H]1CN(c2nc(NC(=O)c3cnc(NS(=O)(=O)CCO)cc3N3CCC4(CC3)CC4)ccc2[N+](=O)[O-])CCO1` [Compound 131], the 50% inhibitory concentration (IC50) was not above 100 nM.

Take `O=C(Nc1ccc([N+](=O)[O-])c(N2CC(F)(F)C2)n1)c1cnc(NS(=O)(=O)CCO)cc1N1CCC2(CC1)CC2` [Compound 132]: the concentration for half-maximal inhibition (IC50) is not above 100 nM.

Consider `O=C(Nc1ccc([N+](=O)[O-])c(OCCC(F)(F)F)n1)c1cnc(NS(=O)(=O)CCO)cc1N1CCC2(CC1)CC2` [Compound 133], for which the IC50 is not above 100 nM. As for `O=C(Nc1ccc([N+](=O)[O-])c(N2CCC3(CC3)C2)n1)c1cnc(NS(=O)(=O)CCO)cc1N1CCC2(CC1)CC2` [Compound 134], the concentration for half-maximal inhibition (IC50) is not above 100 nM. As for `O=C(Nc1ccc([N+](=O)[O-])c(OC2CCC2)n1)c1cnc(NS(=O)(=O)CCO)cc1N1CCC2(CC1)CC2` [Compound 135], the figure is not above 100 nM.

Turning to `CC1(F)CCN(c2nc(NC(=O)c3cnc(NS(=O)(=O)CCO)cc3N3CCC4(CC3)CC4)ccc2[N+](=O)[O-])C1` (stereo not drawn) [Compound 136], the IC50 was not above 100 nM. For `O=C(Nc1ccc([N+](=O)[O-])c(N2CCC(F)CC2)n1)c1cnc(NS(=O)(=O)CCO)cc1N1CCC2(CC1)CC2` [Compound 137], the half-inhibitory concentration (IC50) is not above 100 nM. As for `O=C(Nc1ccc([N+](=O)[O-])c(N2CC3CC3C2)n1)c1cnc(NS(=O)(=O)CCO)cc1N1CCC2(CC1)CC2` (stereo not drawn) [Compound 138], the figure is not above 100 nM; as for `CC(C)(CO)Nc1nc(NC(=O)c2cnc(NS(=O)(=O)CCO)cc2N2CCC3(CC2)CC3)ccc1[N+](=O)[O-]` [Compound 139], not above 100 nM; as for `O=C(Nc1ccc([N+](=O)[O-])c(N2CCOCC2)n1)c1cnc(NS(=O)(=O)CCO)cc1N1CCC2(CC1)CC2` [Compound 140], not above 100 nM.

Turning to `C[C@@H](CO)S(=O)(=O)Nc1cc(N2CCC3(CC2)CC3)c(C(=O)Nc2ccc([N+](=O)[O-])c(N3CCC(F)(F)CC3)n2)cn1` [Compound 141], the IC50 is not above 100 nM. For `C[C@H](CO)S(=O)(=O)Nc1cc(N2CCC3(CC2)CC3)c(C(=O)Nc2ccc([N+](=O)[O-])c(N3CCC(F)(F)CC3)n2)cn1` [Compound 142], the IC50 is not above 100 nM. In the case of `C[C@@H]1CN(c2nc(NC(=O)c3cnc(NS(=O)(=O)[C@@H](C)CO)cc3N3CCC4(CC3)CC4)ccc2[N+](=O)[O-])CCO1` [Compound 143] it was not above 100 nM. In the case of `C[C@@H]1CN(c2nc(NC(=O)c3cnc(NS(=O)(=O)[C@H](C)CO)cc3N3CCC4(CC3)CC4)ccc2[N+](=O)[O-])CCO1` [Compound 144], the 50% inhibitory concentration (IC50) was not above 100 nM. In the case of `O=C(Nc1ccc([N+](=O)[O-])c(N2CCC(F)(F)CC2)n1)c1cnc(S(=O)(=O)NCCO)cc1N1CCC2(CC1)CC2` [Compound 145] it was not above 100 nM; in that of `C[C@@H]1CN(c2nc(NC(=O)c3cnc(S(=O)(=O)NCCO)cc3N3CCC4(CC3)CC4)ccc2[N+](=O)[O-])CCO1` [Compound 146], not above 100 nM.

As to `C[C@H]1CN(c2nc(NC(=O)c3cnc(S(=O)(=O)NCCO)cc3N3CCC4(CC3)CC4)ccc2[N+](=O)[O-])CCO1` [Compound 147], the half-maximal inhibitory concentration (IC50) is not above 100 nM. For `O=C(Nc1ccc([N+](=O)[O-])c(N2CC(F)(F)C2)n1)c1cnc(S(=O)(=O)NCCO)cc1N1CCC2(CC1)CC2` [Compound 148], the IC50 is not above 100 nM. Take `O=C(Nc1ccc([N+](=O)[O-])c(OCCC(F)(F)F)n1)c1cnc(S(=O)(=O)NCCO)cc1N1CCC2(CC1)CC2` [Compound 149]: the IC50 is not above 100 nM. Regarding `O=C(Nc1ccc([N+](=O)[O-])c(N2CCC3(CC3)C2)n1)c1cnc(S(=O)(=O)NCCO)cc1N1CCC2(CC1)CC2` [Compound 150], the IC50 is not above 100 nM. Regarding `O=C(Nc1ccc([N+](=O)[O-])c(OC2CCC2)n1)c1cnc(S(=O)(=O)NCCO)cc1N1CCC2(CC1)CC2` [Compound 151], the IC50 is not above 100 nM. As for `CC1(F)CCN(c2nc(NC(=O)c3cnc(S(=O)(=O)NCCO)cc3N3CCC4(CC3)CC4)ccc2[N+](=O)[O-])C1` (stereo not drawn) [Compound 152], the IC50 is not above 100 nM. With `O=C(Nc1ccc([N+](=O)[O-])c(N2CCC(F)CC2)n1)c1cnc(S(=O)(=O)NCCO)cc1N1CCC2(CC1)CC2` [Compound 153], the IC50 was not above 100 nM.

Regarding `O=C(Nc1ccc([N+](=O)[O-])c(N2CC3CC3C2)n1)c1cnc(S(=O)(=O)NCCO)cc1N1CCC2(CC1)CC2` (stereo not drawn) [Compound 154], the half-maximal inhibitory concentration (IC50) was not above 100 nM. Turning to `CC(C)(CO)Nc1nc(NC(=O)c2cnc(S(=O)(=O)NCCO)cc2N2CCC3(CC2)CC3)ccc1[N+](=O)[O-]` [Compound 155], the concentration for half-maximal inhibition (IC50) is not above 100 nM. For the compound `O=C(Nc1ccc([N+](=O)[O-])c(N2CCOCC2)n1)c1cnc(S(=O)(=O)NCCO)cc1N1CCC2(CC1)CC2` [Compound 156], the IC50 is not above 100 nM.

As to `C[C@@H](CO)NS(=O)(=O)c1cc(N2CCC3(CC2)CC3)c(C(=O)Nc2ccc([N+](=O)[O-])c(N3CCC(F)(F)CC3)n2)cn1` [Compound 157], the IC50 was not above 100 nM. Take `C[C@H](CO)NS(=O)(=O)c1cc(N2CCC3(CC2)CC3)c(C(=O)Nc2ccc([N+](=O)[O-])c(N3CCC(F)(F)CC3)n2)cn1` [Compound 158]: the half-maximal inhibitory concentration (IC50) is not above 100 nM. With `C[C@@H]1CN(c2nc(NC(=O)c3cnc(S(=O)(=O)N[C@@H](C)CO)cc3N3CCC4(CC3)CC4)ccc2[N+](=O)[O-])CCO1` [Compound 159], the half-inhibitory concentration (IC50) is not above 100 nM. Turning to `C[C@H](CO)NS(=O)(=O)c1cc(N2CCC3(CC2)CC3)c(C(=O)Nc2ccc([N+](=O)[O-])c(N3CCO[C@H](C)C3)n2)cn1` [Compound 160], the IC50 was not above 100 nM.

Consider `C[C@@H]1CN(c2nc(C(=O)Nc3ccc(NS(=O)(=O)CCO)cc3N3CCC4(CC3)CC4)ccc2[N+](=O)[O-])CCO1` [Compound 162], for which the IC50 is not above 100 nM.

The values are drawn from patent US20260158017A1, “KIF18A INHIBITOR” (WIGEN BIOMEDICINE TECHNOLOGY (SHANGHAI) CO., LTD., priority 2021, published 2026).
